Ends that are not written are not given here.
Tests used:
[1] = test system: K. pneumoniae (ATCC 43816); assay type: cell-based, Klebsiella pneumoniae; conditions: ATCC 43816, 24 h
Description: (§1) The hydrolysates were investigated for their antibacterial activity against E. coli (ATCC 8739), P. aeruginosa (ATCC 9027), S. aureus (ATCC 6538), and K. pneumoniae (ATCC 43816) using the […]. Briefly, 50 μL of different concentrations of peptides were prepared in sterile Mueller Hinton broth. A volume of 30 μL of resazurin indicator solution (0.02%) was added to each well. An equal volume of bacterial suspension (0.5 McFarland standard) and sterile Mueller Hinton broth was then added to the well and incubated at 37 °C for 24 h. Sterile Mueller Hinton broth and 20 μg mL^−1 gentamycin were used as blank and positive controls, respectively. Afterward, the minimum inhibitory concentration (MIC) was determined as the lowest concentration of the peptides at which no visible growth was observed, compared to the positive control. All dilutions were performed in duplicate.

E. coli (ATCC 8739) = assay type: cell-based, Escherichia coli; conditions: ATCC 8739, 24 h
Description: as §1

in vitro = assay type: cell-based; conditions: human, Caco-2 cells
Description: The synthesized peptides were investigated for ACE and DPP-IV inhibitory activity, and antibacterial potential against E. coli, P. aeruginosa, S. aureus, and K. pneumoniae. Their cytotoxicity was also analyzed using the method described by Benjakul et al.[20], with some modifications. Briefly, Caco-2 and L929 cell lines were cultured in Dulbecco's Modified Eagle Medium and the RAW264.7 cell line in RPMI 1640 medium and incubated at 5% CO2 and 37 °C. All media were supplemented with 10% fetal bovine serum. Each cell line (100 µL at 2 × 10^4 cells mL^−1) was seeded onto 96-well microplates and mixed with an equal volume of each peptide at 1, 2, 4, and 6 mg mL^−1. Subsequently, the microplate was incubated for 72 h, followed by a cell viability assay using the MTT I proliferation kit (Roche Diagnostics, Basel, Switzerland). The absorbance was recorded at 570 nm.

[2] = target: angiotensin-converting enzyme (ACE) (Homo sapiens, UniProt P12821); test: In vitro antihypertensive assay (ACE inhibition, FAPGG, spectrophotometric); assay type: biochemical
Description: A spectrophotometrical method was used to determine the antihypertensive activity of peptides according to the procedure of Asoodeh, et al.[18], with some modifications. ACE (22 µL at 50 mU mL^−1) was mixed with 50 µL of the peptides at increasing concentrations (0.1, 0.2, 0.4, 0.8, 1, and 2 mg mL^−1). FAPGG (100 µL at 0.5 mM) and 150 µL of ACE buffer (50 mM Tris-HCl [pH 7.5] containing 0.3 M NaCl and 1 mM ZnCl2) were added to the mixture, followed by monitoring at 340 nm for 60 min. The antihypertensive activity was calculated as follows:2 Antihypertensiveactivity%=1-ΔAbssample/ΔAbscontrol×100
The ACE buffer was added to the mixture instead of the peptides for control. For determination of the experiment precision, captopril (15 nM) was used as positive control. The half maximal inhibitory concentration (IC50) was defined as the concentration of the peptides at which 50% of ACE activity was inhibited. All experiments were performed in triplicate.

[3] = target: dipeptidyl peptidase IV (DPP-IV) (Homo sapiens, UniProt P27487); test: In vitro antidiabetic assay (DPP-IV inhibition); assay type: biochemical
Description: To assess antidiabetic activity, a pre-incubated solution (50 μL) containing 30 μL Tris-HCl buffer, 5 μL of peptides (0.1, 0.2, 0.4, 0.8, 1, 2, and 4 mg mL^−1) or standard (5 μM), and 15 μL […] were poured into the wells of a 96-well microplate. Afterward, 50 μL DPP-IV (0.02 U mL^−1) was added to the mixture and incubated at 37 °C for 30 min. The reaction was stopped by adding 100 μL sodium acetate (1 M, pH 4). Absorbance at 405 nm was measured in a microplate reader. Diprotein-A (isoleucine-proline-isoleucine) was used as a standard DPP-IV inhibitor. The antidiabetic activity was calculated as follows:3 DPP - IVinhibitoryactivity(%)=1-Asample-Ablanck/Apositicecontrol-Anegativecontrol×100
Tris-HCl (100 mM) was added to the mixture instead of DPP-IV, peptide, or peptide plus DPP-IV to represent a blank, positive, and negative control, respectively.

[4] = test system: P. aeruginosa (ATCC 9027); assay type: cell-based, Pseudomonas aeruginosa; conditions: ATCC 9027, 24 h
Description: as §1

S. aureus (ATCC 6538) = assay type: cell-based, Staphylococcus aureus; conditions: ATCC 6538, 24 h
Description: as §1

DPP-IV = test system: DPP-IV; design: method as in PMID 26323964; conditions: cited from earlier work
ACE = conditions: cited from earlier work

dipeptidyl peptidase IV (DPP-IV), sequence (P27487 whole entry, species assumed): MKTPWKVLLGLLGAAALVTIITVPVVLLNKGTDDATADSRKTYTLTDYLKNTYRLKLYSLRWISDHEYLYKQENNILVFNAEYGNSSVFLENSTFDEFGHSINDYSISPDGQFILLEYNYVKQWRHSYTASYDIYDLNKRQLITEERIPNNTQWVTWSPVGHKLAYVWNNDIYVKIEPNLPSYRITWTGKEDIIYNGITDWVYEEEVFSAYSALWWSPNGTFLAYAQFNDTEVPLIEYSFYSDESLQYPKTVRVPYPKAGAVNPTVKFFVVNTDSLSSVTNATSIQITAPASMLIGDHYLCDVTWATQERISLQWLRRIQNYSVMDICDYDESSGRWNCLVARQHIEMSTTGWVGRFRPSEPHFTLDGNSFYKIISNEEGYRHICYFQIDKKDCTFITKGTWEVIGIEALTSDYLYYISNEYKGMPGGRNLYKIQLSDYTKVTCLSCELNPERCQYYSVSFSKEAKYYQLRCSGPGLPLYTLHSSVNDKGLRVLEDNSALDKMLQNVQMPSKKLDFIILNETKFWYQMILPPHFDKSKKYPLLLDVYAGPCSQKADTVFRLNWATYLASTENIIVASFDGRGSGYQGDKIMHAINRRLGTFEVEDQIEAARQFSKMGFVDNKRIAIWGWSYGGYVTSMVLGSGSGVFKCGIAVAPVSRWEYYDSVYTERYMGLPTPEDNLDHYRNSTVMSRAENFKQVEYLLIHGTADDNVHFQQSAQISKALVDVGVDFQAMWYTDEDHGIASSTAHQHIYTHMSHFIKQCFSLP
angiotensin-converting enzyme (ACE), sequence (P12821 30-1306, species assumed): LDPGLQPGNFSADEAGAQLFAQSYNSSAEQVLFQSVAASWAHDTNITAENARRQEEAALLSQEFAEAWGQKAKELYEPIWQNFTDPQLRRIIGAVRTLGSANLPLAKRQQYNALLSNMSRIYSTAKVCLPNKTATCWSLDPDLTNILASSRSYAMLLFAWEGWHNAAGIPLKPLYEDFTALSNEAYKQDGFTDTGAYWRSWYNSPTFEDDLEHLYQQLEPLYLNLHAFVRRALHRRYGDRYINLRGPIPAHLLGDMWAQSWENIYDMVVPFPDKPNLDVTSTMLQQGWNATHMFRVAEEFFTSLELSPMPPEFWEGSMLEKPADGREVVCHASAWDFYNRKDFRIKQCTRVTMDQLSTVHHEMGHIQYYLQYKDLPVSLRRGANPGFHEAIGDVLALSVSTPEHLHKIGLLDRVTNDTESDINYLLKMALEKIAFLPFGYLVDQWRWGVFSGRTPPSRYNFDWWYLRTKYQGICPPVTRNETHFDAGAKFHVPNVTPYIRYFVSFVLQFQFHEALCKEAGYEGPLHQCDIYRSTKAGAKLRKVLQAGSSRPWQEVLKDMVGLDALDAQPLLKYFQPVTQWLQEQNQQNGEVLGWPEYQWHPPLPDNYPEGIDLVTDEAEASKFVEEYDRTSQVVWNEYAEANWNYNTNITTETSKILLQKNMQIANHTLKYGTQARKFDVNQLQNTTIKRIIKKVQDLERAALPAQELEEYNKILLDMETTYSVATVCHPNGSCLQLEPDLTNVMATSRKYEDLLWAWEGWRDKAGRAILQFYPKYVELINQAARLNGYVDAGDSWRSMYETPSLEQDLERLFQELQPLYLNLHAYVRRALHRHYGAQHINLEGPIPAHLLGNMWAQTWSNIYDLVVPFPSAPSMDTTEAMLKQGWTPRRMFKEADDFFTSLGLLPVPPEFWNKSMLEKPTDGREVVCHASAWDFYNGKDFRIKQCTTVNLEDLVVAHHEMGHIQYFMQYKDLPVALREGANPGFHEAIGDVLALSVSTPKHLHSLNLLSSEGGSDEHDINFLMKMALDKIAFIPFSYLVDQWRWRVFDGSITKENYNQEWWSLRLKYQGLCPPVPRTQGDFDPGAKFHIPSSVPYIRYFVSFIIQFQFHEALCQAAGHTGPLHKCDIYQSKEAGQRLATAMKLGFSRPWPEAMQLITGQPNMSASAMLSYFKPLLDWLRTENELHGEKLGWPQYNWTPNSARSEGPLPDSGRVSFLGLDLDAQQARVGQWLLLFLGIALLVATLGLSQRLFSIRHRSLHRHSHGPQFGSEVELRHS

Substance: GRDGEP-NH2 [P2, GRDGEP]
- MIC against K. pneumoniae [1]: ≥ 2000 µg/mL
- MIC for E. coli (E. coli (ATCC 8739)): 1330 µg/mL
- viability at 72 h, 6 mg mL^−1 (in vitro): 95.8%
- IC50 [2]: 811 µM
- IC50 [3]: 1480 µM
- MIC against P. aeruginosa [4]: ≥ 2000 µg/mL
- MIC against S. aureus (S. aureus (ATCC 6538)): 1160 µg/mL

Substance: MHQPPQPL
- DPP-IV inhibitory activities (DPP-IV): moderate

Substance: MTGTQGEAGR-NH2 [P3, MTGTQGEAGR]
- MIC against K. pneumoniae [1]: 1500 µg/mL
- MIC for E. coli (E. coli (ATCC 8739)): 460 µg/mL
- viability at 72 h, 6 mg mL^−1 (in vitro): 95.9%
- IC50 [2]: 775 µM
- IC50 [3]: 1150 µM
- MIC against P. aeruginosa [4]: 1660 µg/mL
- MIC against S. aureus (S. aureus (ATCC 6538)): 200 µg/mL

Substance: SPTVMFPPQSVL
- DPP-IV inhibitory activities (DPP-IV): moderate

Substance: VLAQYK
- ACE inhibition (ACE): 30.1%
